Laboratory results published in ChEMBL document CHEMBL1129841, “Peptide based inhibitors of interleukin-8: structural simplification and enhanced potency” (Bioorg Med Chem Lett, 1997).
*1 amine or outer side, *2 acyl side, *3 side chain or, on linkers, in order; H or OH if unused. Where a SMILES comes first, the peptide text is derived from it. [ ]: non-standard residue; d: D form. ξ: configuration not given here. 2(aminomethyl)benzoyl = O=C(c1ccccc1CN[*:1])[*:2]; X1 = C[C@@H](CCCC(=O)[*:2])N[*:1]; X2 = C[C@H](CCCN[*:1])C(=O)[*:2]; ξThr(3R) = C[C@@H](O)C(N)C(=O)O; 12Ado = NCCCCCCCCCCCC(=O)O; 3Amb = NCc1cccc(C(=O)O)c1; 4Amb = NCc1ccc(C(=O)O)cc1; Aun = NCCCCCCCCCCC(=O)O; Aoc = NCCCCCCCC(=O)O; Ahx = NCCCCCC(=O)O; ξP = O=C(O)C1CCCN1; Ava = NCCCCC(=O)O; GABA = NCCCC(=O)O

biological target: T1, Interleukin-8 (Homo sapiens, UniProt P10145); test: Inhibition of Interleukin-8 (IL-8)
T1 sequence (P10145 whole entry): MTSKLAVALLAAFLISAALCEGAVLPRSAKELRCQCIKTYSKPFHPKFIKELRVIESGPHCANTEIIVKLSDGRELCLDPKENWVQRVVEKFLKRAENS

| Ki | Compound |
| --- | --- |
| 9.3 µM | CSCC[C@H](NC(C)=O)C(=O)N[C@@H](Cc1c[nH]c2ccccc12)C(=O)N[C@@H](CC(=O)O)C(=O)N[C@@H](Cc1ccccc1)C(=O)N[C@@H](CC(=O)O)C(=O)N[C@@H](CC(=O)O)C(=O)N[C@@H](CC(C)C)C(=O)N[C@@H](CC(N)=O)C(=O)N[C@@H](Cc1ccccc1)C(=O)NCc1ccccc1C(=O)N[C@@H](CCSC)C(=O)N1CCC[C@H]1C(=O)N1CCC[C@H]1C(=O)N[C@@H](C)C(=O)N[C@@H](CC(=O)O)C(=O)N[C@@H](CCC(=O)O)C(=O)N[C@@H](CC(=O)O)C(=O)N[C@@H](Cc1ccc(O)cc1)C(=O)N[C@@H](CO)C(=O)N1CCCC1C(N)=O (some centres undefined) (Ac-MWDFDDLNF[2(aminomethyl)benzoyl]MPPADEDYS[ξP]-NH2) |
| 4 µM | CSCC[C@H](NC(C)=O)C(=O)N[C@@H](Cc1c[nH]c2ccccc12)C(=O)N[C@@H](CC(=O)O)C(=O)N[C@@H](Cc1ccccc1)C(=O)N[C@@H](CC(=O)O)C(=O)N[C@@H](CC(=O)O)C(=O)N[C@@H](CC(C)C)C(=O)N[C@@H](CC(N)=O)C(=O)N[C@@H](Cc1ccccc1)C(=O)NCc1cccc(C(=O)N[C@@H](CCSC)C(=O)N2CCC[C@H]2C(=O)N2CCC[C@H]2C(=O)N[C@@H](C)C(=O)N[C@@H](CC(=O)O)C(=O)N[C@@H](CCC(=O)O)C(=O)N[C@@H](CC(=O)O)C(=O)N[C@@H](Cc2ccc(O)cc2)C(=O)N[C@@H](CO)C(=O)N2CCC[C@H]2C(N)=O)c1 (Ac-MWDFDDLNF[3Amb]MPPADEDYSP-NH2) |
| 2.3 µM | CSCC[C@H](NC(C)=O)C(=O)N[C@@H](Cc1c[nH]c2ccccc12)C(=O)N[C@@H](CC(=O)O)C(=O)N[C@@H](Cc1ccccc1)C(=O)N[C@@H](CC(=O)O)C(=O)N[C@@H](CC(=O)O)C(=O)N[C@@H](CC(C)C)C(=O)N[C@@H](CC(N)=O)C(=O)N[C@@H](Cc1ccccc1)C(=O)NCc1ccc(C(=O)N[C@@H](CCSC)C(=O)N2CCC[C@H]2C(=O)N2CCC[C@H]2C(=O)N[C@@H](C)C(=O)N[C@@H](CC(=O)O)C(=O)N[C@@H](CCC(=O)O)C(=O)N[C@@H](CC(=O)O)C(=O)N[C@@H](Cc2ccc(O)cc2)C(=O)N[C@@H](CO)C(=O)N2CCC[C@H]2C(N)=O)cc1 (Ac-MWDFDDLNF[4Amb]MPPADEDYSP-NH2) |
| 13 µM | CSCC[C@H](NC(C)=O)C(=O)N[C@@H](Cc1c[nH]c2ccccc12)C(=O)N[C@@H](CC(=O)O)C(=O)N[C@@H](Cc1ccccc1)C(=O)N[C@@H](CC(=O)O)C(=O)N[C@@H](CC(=O)O)C(=O)N[C@@H](CC(C)C)C(=O)N[C@@H](CC(N)=O)C(=O)N[C@@H](Cc1ccccc1)C(=O)NCCCCC(=O)N[C@@H](CCSC)C(=O)N1CCC[C@H]1C(=O)N1CCC[C@H]1C(=O)N[C@@H](C)C(=O)N[C@@H](CC(=O)O)C(=O)N[C@@H](CCC(=O)O)C(=O)N[C@@H](CC(=O)O)C(=O)N[C@@H](Cc1ccc(O)cc1)C(=O)N[C@@H](CO)C(=O)N1CCC[C@H]1C(N)=O (Ac-MWDFDDLNF[Ava]MPPADEDYSP-NH2) |
| 10 µM | CSCC[C@H](NC(C)=O)C(=O)N[C@@H](Cc1c[nH]c2ccccc12)C(=O)N[C@@H](CC(=O)O)C(=O)N[C@@H](Cc1ccccc1)C(=O)N[C@@H](CC(=O)O)C(=O)N[C@@H](CC(=O)O)C(=O)N[C@@H](CC(C)C)C(=O)N[C@@H](CC(N)=O)C(=O)N[C@@H](Cc1ccccc1)C(=O)N[C@@H](C)CCCC(=O)N[C@@H](CCSC)C(=O)N1CCC[C@H]1C(=O)N1CCC[C@H]1C(=O)N[C@@H](C)C(=O)N[C@@H](CC(=O)O)C(=O)N[C@@H](CCC(=O)O)C(=O)N[C@@H](CC(=O)O)C(=O)N[C@@H](Cc1ccc(O)cc1)C(=O)N[C@@H](CO)C(=O)N1CCC[C@H]1C(N)=O (Ac-MWDFDDLNF[X1]MPPADEDYSP-NH2) |
| 106 µM | CSCC[C@H](NC(C)=O)C(=O)N[C@@H](Cc1c[nH]c2ccccc12)C(=O)N[C@@H](CC(=O)O)C(=O)N[C@@H](Cc1ccccc1)C(=O)N[C@@H](CC(=O)O)C(=O)N[C@@H](CC(=O)O)C(=O)N[C@@H](CC(C)C)C(=O)N[C@@H](CC(N)=O)C(=O)N[C@@H](Cc1ccccc1)C(=O)NC(C(=O)NCCCCC(=O)N1CCC[C@H]1C(=O)N1CCC[C@H]1C(=O)N[C@@H](C)C(=O)N[C@@H](CC(=O)O)C(=O)N[C@@H](CCC(=O)O)C(=O)N[C@@H](CC(=O)O)C(=O)N[C@@H](Cc1ccc(O)cc1)C(=O)N[C@@H](CO)C(=O)N1CCC[C@H]1C(N)=O)[C@@H](C)O (stereo partly drawn) (Ac-MWDFDDLNF[ξThr(3R)][Ava]PPADEDYSP-NH2) |
| 383 µM | CSCC[C@H](NC(C)=O)C(=O)N[C@@H](Cc1c[nH]c2ccccc12)C(=O)N[C@@H](CC(=O)O)C(=O)N[C@@H](Cc1ccccc1)C(=O)N[C@@H](CC(=O)O)C(=O)N[C@@H](CC(=O)O)C(=O)N[C@@H](CC(C)C)C(=O)N[C@@H](CC(N)=O)C(=O)N[C@@H](Cc1ccccc1)C(=O)NC(C(=O)NCCC[C@@H](C)C(=O)N1CCC[C@H]1C(=O)N1CCC[C@H]1C(=O)N[C@@H](C)C(=O)N[C@@H](CC(=O)O)C(=O)N[C@@H](CCC(=O)O)C(=O)N[C@@H](CC(=O)O)C(=O)N[C@@H](Cc1ccc(O)cc1)C(=O)N[C@@H](CO)C(=O)N1CCC[C@H]1C(N)=O)[C@@H](C)O (stereo partly drawn) (Ac-MWDFDDLNF[ξThr(3R)][X2]PPADEDYSP-NH2) |
| 4 µM | CSCC[C@H](NC(C)=O)C(=O)N[C@@H](Cc1c[nH]c2ccccc12)C(=O)N[C@@H](CC(=O)O)C(=O)N[C@@H](Cc1ccccc1)C(=O)N[C@@H](CC(=O)O)C(=O)N[C@@H](CC(=O)O)C(=O)NCCCCCCCCCCCC(=O)N[C@@H](CCSC)C(=O)N1CCC[C@H]1C(=O)N1CCC[C@H]1C(=O)N[C@@H](C)C(=O)N[C@@H](CC(=O)O)C(=O)N[C@@H](CCC(=O)O)C(=O)N[C@@H](CC(=O)O)C(=O)N[C@@H](Cc1ccc(O)cc1)C(=O)N[C@@H](CO)C(=O)N1CCC[C@H]1C(N)=O (Ac-MWDFDD[12Ado]MPPADEDYSP-NH2) |
| 7 µM | CSCC[C@H](NC(C)=O)C(=O)N[C@@H](Cc1c[nH]c2ccccc12)C(=O)N[C@@H](CC(=O)O)C(=O)N[C@@H](Cc1ccccc1)C(=O)N[C@@H](CC(=O)O)C(=O)N[C@@H](CC(=O)O)C(=O)NCCCCCC(=O)N[C@@H](CCSC)C(=O)N1CCC[C@H]1C(=O)N1CCC[C@H]1C(=O)N[C@@H](C)C(=O)N[C@@H](CC(=O)O)C(=O)N[C@@H](CCC(=O)O)C(=O)N[C@@H](CC(=O)O)C(=O)N[C@@H](Cc1ccc(O)cc1)C(=O)N[C@@H](CO)C(=O)N1CCC[C@H]1C(N)=O (Ac-MWDFDD[Ahx]MPPADEDYSP-NH2) |
| 12 µM | CSCC[C@H](NC(C)=O)C(=O)N[C@@H](Cc1c[nH]c2ccccc12)C(=O)N[C@@H](CC(=O)O)C(=O)N[C@@H](Cc1ccccc1)C(=O)N[C@@H](CC(=O)O)C(=O)N[C@@H](CC(=O)O)C(=O)NCCCCCCCC(=O)N[C@@H](CCSC)C(=O)N1CCC[C@H]1C(=O)N1CCC[C@H]1C(=O)N[C@@H](C)C(=O)N[C@@H](CC(=O)O)C(=O)N[C@@H](CCC(=O)O)C(=O)N[C@@H](CC(=O)O)C(=O)N[C@@H](Cc1ccc(O)cc1)C(=O)N[C@@H](CO)C(=O)N1CCC[C@H]1C(N)=O (Ac-MWDFDD[Aoc]MPPADEDYSP-NH2) |
| 6 µM | CSCC[C@H](NC(C)=O)C(=O)N[C@@H](Cc1c[nH]c2ccccc12)C(=O)N[C@@H](CC(=O)O)C(=O)N[C@@H](Cc1ccccc1)C(=O)N[C@@H](CC(=O)O)C(=O)N[C@@H](CC(=O)O)C(=O)NCCCCCCCCCCC(=O)N[C@@H](CCSC)C(=O)N1CCC[C@H]1C(=O)N1CCC[C@H]1C(=O)N[C@@H](C)C(=O)N[C@@H](CC(=O)O)C(=O)N[C@@H](CCC(=O)O)C(=O)N[C@@H](CC(=O)O)C(=O)N[C@@H](Cc1ccc(O)cc1)C(=O)N[C@@H](CO)C(=O)N1CCC[C@H]1C(N)=O (Ac-MWDFDD[Aun]MPPADEDYSP-NH2) |
| 14 µM | CSCC[C@H](NC(C)=O)C(=O)N[C@@H](Cc1c[nH]c2ccccc12)C(=O)N[C@@H](CC(=O)O)C(=O)N[C@@H](Cc1ccccc1)C(=O)N[C@@H](CC(=O)O)C(=O)N[C@@H](CC(=O)O)C(=O)NCCCC(=O)N[C@@H](CCSC)C(=O)N1CCC[C@H]1C(=O)N1CCC[C@H]1C(=O)N[C@@H](C)C(=O)N[C@@H](CC(=O)O)C(=O)N[C@@H](CCC(=O)O)C(=O)N[C@@H](CC(=O)O)C(=O)N[C@@H](Cc1ccc(O)cc1)C(=O)N[C@@H](CO)C(=O)N1CCC[C@H]1C(N)=O (Ac-MWDFDD[GABA]MPPADEDYSP-NH2) |
| 31 µM | Ac-MWDFDDGMPPADEDYSP-NH2 |
| 13 µM | Ac-MWDFDDLNFTGMPPADEDYSP-NH2 |
